Measured values as given in US20240238422A1 (Osprey Biopharmaceuticals, Inc., priority 2021, published 2024).

What was measured:
Siglec-2 (CD22) = settings: SAM for Siglec-2 (CD22); value of the cited reference; cited from earlier work
human CD22 = target: T1, human CD22 (Homo sapiens, UniProt P20273); test: SPR binding of synthetic Siglec ligands to human CD22 ectodomain (Biacore 8K+); settings: for Kd: SPR, alkyne-terminating precursors of the PFP linkers, read-out: Human Siglec-2 Binding Affinity; for Human Siglec-2 Binding Affinity: grade in words for the conjugatable Siglec ligand-linker
T1 construct: Fc (human CD22-Fc fusion); purchased R&D Systems AV11968-050
Description: (§1) The following ligands were evaluated for mouse and human CD22 binding: 1) BPC-Neu5Gc PEG (Cpd. No. 26463), 2) BPC-Neu5Gc GAL (Cpd. No. 26339), 3) MPB-Neu5Ac PEG (Cpd. No. 26334), 4) MPB-Neu5Ac GAL (Cpd. No. 26409), 5) Neu5Gc PEG (Cpd. No. 26591). All tested compounds are alkyne-terminating precursors of PFP-terminating, conjugatable Siglec Linker structures used in conjugates in the following examples.
(§2) Binding assays for synthetic CD22 ligand binding to CD22 receptor ectodomain were run on a Biacore 8K+ instrument (Cytiva). Surface preparation for CD22 conjugates binding to human or mouse CD22 protein consisted of two steps, covalent immobilization of streptavidin followed by capture of Avi-tagged and biotinylated human CD22-Fc fusion (R&D Systems, Cat #AV11968-050) and a mono-Fc fusion of mouse CD22. Using standard amine coupling protocols, Streptavidin (Invitrogen, Cat #: 434301) was immobilized to a Cytiva CM5 chip (Cytiva, Cat #BR100530) by injecting at 100 ug/mL in Sodium Acetate, pH 4.5 (Cytiva, Cat #BR100350) on both flow cells, yielding a final response of 2500 RU. Capture of biotinylated mono Fc human CD22 was performed on channels 1-4 and mouse CD22 on channels 5-8 on the active flow cell (2) and the reference flow cell (1) was kept as unmodified streptavidin to account for any non-specific binding. Human CD22 or mouse CD22 (mono-Fc fusion, 5 μg/mL) was injected on the active flow cell (2) for 90 seconds at 5 μL/min, yielding about 210 RU of captured constructs.
(§3) Binding experiments of Siglec-ligand conjugated proteins were performed on the surfaces prepared above in HBS-EP+ (10 mM HEPES, 150 mM NaCl, 3 mM EDTA, 0.05% Tween-20, pH 7.5) as the running buffer. Conjugates were serially diluted 1:1 in running buffer from 1 μM to 31.25 nM and injected over both the reference and active flow cells for 90 seconds at 30 μL/min. The conjugates were then allowed to dissociate from the surface for 300 seconds. No regeneration was required as the conjugates completely dissociated from the surface after 30 seconds.

mouse CD22 = target: T2, mouse CD22 (Mus musculus, UniProt P35329); test: SPR binding of synthetic Siglec ligands to mouse CD22 ectodomain (Biacore 8K+); settings: for Kd: SPR, alkyne-terminating precursors of the PFP linkers, read-out: Mouse Siglec-2 Binding Affinity; for Mouse Siglec-2 Binding Affinity: grade in words for the conjugatable Siglec ligand-linker
T2 construct: synthetic Siglec ligands for recombinant human and mouse CD22 ectodomains
T2 sequence (P35329 22-708 limits assumed): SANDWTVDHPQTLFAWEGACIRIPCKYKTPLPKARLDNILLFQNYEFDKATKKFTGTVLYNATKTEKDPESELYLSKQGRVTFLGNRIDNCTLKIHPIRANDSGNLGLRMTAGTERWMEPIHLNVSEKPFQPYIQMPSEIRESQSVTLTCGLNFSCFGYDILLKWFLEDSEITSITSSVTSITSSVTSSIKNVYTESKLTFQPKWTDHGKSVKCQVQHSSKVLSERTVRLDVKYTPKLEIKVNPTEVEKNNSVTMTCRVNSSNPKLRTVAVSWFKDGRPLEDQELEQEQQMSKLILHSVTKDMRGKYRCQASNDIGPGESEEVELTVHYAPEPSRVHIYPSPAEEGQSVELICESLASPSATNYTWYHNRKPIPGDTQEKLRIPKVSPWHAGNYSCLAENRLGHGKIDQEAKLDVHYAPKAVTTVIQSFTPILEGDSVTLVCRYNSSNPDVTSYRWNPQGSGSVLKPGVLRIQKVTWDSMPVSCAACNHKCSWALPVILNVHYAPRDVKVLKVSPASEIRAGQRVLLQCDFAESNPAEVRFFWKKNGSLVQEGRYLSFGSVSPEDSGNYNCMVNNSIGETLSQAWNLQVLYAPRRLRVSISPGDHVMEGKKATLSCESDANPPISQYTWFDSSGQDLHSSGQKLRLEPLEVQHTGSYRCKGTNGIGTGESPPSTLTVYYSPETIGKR
Description: as §1, §2, §3

T1 sequence (P20273 20-687 limits assumed): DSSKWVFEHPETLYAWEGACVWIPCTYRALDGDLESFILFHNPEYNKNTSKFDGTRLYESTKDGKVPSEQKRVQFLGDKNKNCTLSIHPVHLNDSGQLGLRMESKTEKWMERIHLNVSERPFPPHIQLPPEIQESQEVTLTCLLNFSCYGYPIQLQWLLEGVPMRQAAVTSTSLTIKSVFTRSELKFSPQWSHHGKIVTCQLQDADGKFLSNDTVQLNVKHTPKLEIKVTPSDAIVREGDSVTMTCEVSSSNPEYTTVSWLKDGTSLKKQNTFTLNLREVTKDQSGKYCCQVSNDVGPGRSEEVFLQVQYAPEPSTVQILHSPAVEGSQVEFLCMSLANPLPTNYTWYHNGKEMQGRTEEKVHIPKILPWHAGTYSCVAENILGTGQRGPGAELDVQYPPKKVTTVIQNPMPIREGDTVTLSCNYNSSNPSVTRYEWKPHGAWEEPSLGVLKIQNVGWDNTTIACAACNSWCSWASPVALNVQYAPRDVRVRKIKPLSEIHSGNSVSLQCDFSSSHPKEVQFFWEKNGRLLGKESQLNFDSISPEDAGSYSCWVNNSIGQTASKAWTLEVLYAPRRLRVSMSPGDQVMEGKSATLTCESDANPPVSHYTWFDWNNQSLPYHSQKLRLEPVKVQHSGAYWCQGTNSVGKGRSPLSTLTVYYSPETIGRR

Compound	Kd (human CD22)	Kd (mouse CD22)	Human Siglec-2 Binding Affinity (human CD22)	Mouse Siglec-2 Binding Affinity (mouse CD22)	IC50 (Siglec-2 (CD22))
CO[C@]1(C(=O)O)CC(NS(=O)(=O)c2ccc(C)cc2)[C@@H](NC(C)=O)C([C@H](O)[C@H](O)CNC(=O)c2ccc(-c3ccccc3)cc2)O1 (some centres unmarked)	–	–	–	–	0.15 µM
C#CCCO[C@@H]1O[C@H](CO[C@]2(C(=O)O)C[C@H](O)[C@@H](NC(C)=O)[C@H]([C@H](O)[C@H](O)CNC(=O)c3cccc(Oc4ccccc4)c3)O2)[C@H](O)[C@H](O)[C@H]1O [Cpd. No. 26409, (2R,4S,5R,6R)-5-acetamido-2-(((2R,3R,4S,5R,6R)-6-(but-3-yn-1-yloxy)-3,4,5-trihydroxytetrahydro-2H-pyran-2-yl)methoxy)-6-((1R,2R)-1,2-dihydroxy-3-(3-phenoxybenzamido)propyl)-4-hydroxytetrahydro-2H-pyran-2-carboxylic acid]	1 µM	> 100 µM	–	–	–
O=C(CCOCCOCCn1cc(COCCOCCOCCOCCO)nn1)NCCCC[C@@H](NC(=O)CCCNC(=O)CCOCCOCCn1cc(COCCOCCOCCOCCO)nn1)C(=O)N[C@H](CCCCNC(=O)CCOCCOCCn1cc(COCCOCCOCCOCCO)nn1)C(=O)NCCOCCOCCOCCOCCC(=O)Oc1c(F)c(F)c(F)c(F)c1F [Cpd. No. 26534, perfluorophenyl (16R,19R)-1-(4-(13-hydroxy-2,5,8,11-tetraoxatridecyl)-1H-1,2,3-triazol-1-yl)-16,19-bis(4-(3-(2-(2-(4-(13-hydroxy-2,5,8,11-tetraoxatridecyl)-1H-1,2,3-triazol-1-yl)ethoxy)ethoxy)propanamido)butyl)-9,14,17,20-tetraoxo-3,6,24,27,30,33-hexaoxa-10,15,18,21-tetraazahexatriacontan-36-oate]	–	–	No Binding	No Binding	–
CO[C@]1(C(=O)O)CC(O)[C@@H](NC(C)=O)C([C@H](O)[C@H](O)CNC(=O)c2ccc(-c3ccccc3)cc2)O1 (some centres unmarked)	–	–	–	–	4 µM
O=C(Cc1ccc(-c2ccc(O)cc2)cc1)NC[C@@H](O)C(O)C1O[C@@](OCc2cccc(Cl)c2Cl)(C(=O)O)CC(O)[C@H]1NS(=O)(=O)c1ccccc1[N+](=O)[O-] (some centres unmarked)	–	–	–	–	0.06 µM
C#CCCO[C@@H]1O[C@H](CO[C@]2(C(=O)O)C[C@H](O)[C@@H](NC(=O)CO)[C@H]([C@H](O)[C@H](O)CNC(=O)Cc3ccc(-c4ccccc4)cc3)O2)[C@H](O)[C@H](O)[C@H]1O	2.5 µM	17.2 µM	–	–	–
C#CCOCCOCCO[C@]1(C(=O)O)C[C@H](O)[C@@H](NC(C)=O)[C@H]([C@H](O)[C@H](O)CNC(=O)c2cccc(Oc3ccccc3)c2)O1 [Cpd. No. 26334, (2R,4S,5R,6R)-5-acetamido-6-((1R,2R)-1,2-dihydroxy-3-(3-phenoxybenzamido)propyl)-4-hydroxy-2-(2-(2-(prop-2-yn-1-yloxy)ethoxy)ethoxy)tetrahydro-2H-pyran-2-carboxylic acid]	0.93 µM	> 100 µM	–	–	–

The next lines start with results.

Kd (human CD22)	Kd (mouse CD22)	Human Siglec-2 Binding Affinity (human CD22)	Mouse Siglec-2 Binding Affinity (mouse CD22)	Compound	IC50 (Siglec-2 (CD22))
–	–	No Binding	No Binding	O=C(CCOCCOCCn1cc(COCCOCCOCCOCCO)nn1)NCCCC[C@@H](NC(=O)CCCNC(=O)CCOCCOCCn1cc(COCCOCCOCCOCCO)nn1)C(=O)NCCOCCOCCOCCOCCC(=O)Oc1c(F)c(F)c(F)c(F)c1F [Cpd. No. 26532, perfluorophenyl (R)-1-(4-(13-hydroxy-2,5,8,11-tetraoxatridecyl)-1H-1,2,3-triazol-1-yl)-16-(4-(3-(2-(2-(4-(13-hydroxy-2,5,8,11-tetraoxatridecyl)-1H-1,2,3-triazol-1-yl)ethoxy)ethoxy)propanamido)butyl)-9,14,17-trioxo-3,6,21,24,27,30-hexaoxa-10,15,18-triazatritriacontan-33-oate]	–
–	–	Weak	Weak	O=C(CCOCCOCCn1cc(COCCOCCO[C@]2(C(=O)O)C[C@H](O)[C@@H](NC(=O)CO)[C@H]([C@H](O)[C@H](O)CO)O2)nn1)NCCCC[C@@H](CN[C@@H](CCCCNC(=O)CCOCCOCCn1cc(COCCOCCO[C@]2(C(=O)O)C[C@H](O)[C@@H](NC(=O)CO)[C@H]([C@H](O)[C@H](O)CO)O2)nn1)C(=O)NCCOCCOCCOCCOCCC(=O)Oc1c(F)c(F)c(F)c(F)c1F)NC(=O)CCCNCCCOCCOCCn1cc(COCCOCCO[C@]2(C(=O)O)C[C@H](O)[C@@H](NC(=O)CO)[C@H]([C@H](O)[C@H](O)CO)O2)nn1 [Cpd. No. 26616]	–
> 450 µM	> 1000 µM	–	–	C#CCOCCOCCO[C@]1(C(=O)O)C[C@H](O)[C@@H](NC(=O)CO)[C@H]([C@H](O)[C@H](O)CO)O1 [Cpd. No. 26591, (2R,4S,5R,6R)-4-hydroxy-5-(2-hydroxyacetamido)-2-(2-(2-(prop-2-yn-1-yloxy)ethoxy)ethoxy)-6-((1R,2R)-1,2,3-trihydroxypropyl)tetrahydro-2H-pyran-2-carboxylic acid]	–
–	–	Weak	Weak	O=C(CO)N[C@H]1[C@H]([C@H](O)[C@H](O)CO)O[C@@](OCCOCCOCc2cn(CCOCCOCCOCCOCCC(=O)Oc3c(F)c(F)c(F)c(F)c3F)nn2)(C(=O)O)C[C@@H]1O [Cpd. No. 26614, (2R,4S,5R,6R)-4-hydroxy-5-(2-hydroxyacetamido)-2-(2-(2-((1-(15-oxo-15-(perfluorophenoxy)-3,6,9,12-tetraoxapentadecyl)-1H-1,2,3-triazol-4-yl)methoxy)ethoxy)ethoxy)-6-((1R,2R)-1,2,3-trihydroxypropyl)tetrahydro-2H-pyran-2-carboxylic acid]	–
–	–	Weak	Weak	O=C(CCOCCOCCn1cc(COCCOCCO[C@]2(C(=O)O)C[C@H](O)[C@@H](NC(=O)CO)[C@H]([C@H](O)[C@H](O)CO)O2)nn1)NCCCC[C@H](NC(=O)CCCNC(=O)CCOCCOCCn1cc(COCCOCCO[C@]2(C(=O)O)C[C@H](O)[C@@H](NC(=O)CO)[C@H]([C@H](O)[C@H](O)CO)O2)nn1)C(=O)NCCOCCOCCOCCOCCC(=O)Oc1c(F)c(F)c(F)c(F)c1F [Cpd. No. 26615]	–
1.3 µM	9.6 µM	–	–	C#CCOCCOCCO[C@]1(C(=O)O)C[C@H](O)[C@@H](NC(=O)CO)[C@H]([C@H](O)[C@H](O)CNC(=O)Cc2ccc(-c3ccccc3)cc2)O1 [Cpd. No. 26463, (2R,4S,5R,6R)-6-((1R,2R)-3-(2-([1,1′-biphenyl]-4-yl)acetamido)-1,2-dihydroxypropyl)-4-hydroxy-5-(2-hydroxyacetamido)-2-(2-(2-(prop-2-yn-1-yloxy)ethoxy)ethoxy)tetrahydro-2H-pyran-2-carboxylic acid]	–
